Results published in patent US20150141411A1, “SUBSTITUTED 3,4-DIHYDRO-2H-PYRIDO[1,2-A]PYRAZINE-1,6-DIONE DERIVATIVES USEFUL FOR THE TREATMENT OF (INTER ALIA) ALZHEIMER'S DISEASE” (Janssen Pharmaceuticals, Inc., priority 2012, published 2015).

Experiments:
[1] = biological target: T1, γ-secretase (Homo sapiens, UniProt P49768); test: Screening for γ-secretase-modulating activity: Aβtotal in supernatant of SKNBE2 cells carrying hAPP 695 wild type (Alphalisa); type: cell-based; conditions: SKNBE2 human neuroblastoma cells carrying hAPP 695 wild type, overnight incubation, Aβtotal in cell supernatant
T1 construct: endogenous in cells; host or cells: SKNBE2 human neuroblastoma cells (carrying hAPP 695 wild type as substrate)
Protocol: (§1) Screening was carried out using SKNBE2 human neuroblastoma cells carrying the hAPP 695—wild type, grown in Dulbecco's Modified Eagle's Medium/Nutrient mixture F-12 (DMEM/NUT-mix F-12) (HAM) provided by Invitrogen (cat no. 10371-029) containing 5% Serum/Fe supplemented with 1% non-essential amino acids, 1-glutamine 2 mM, Hepes 15 mM, penicillin 50 U/ml (units/ml) en streptomycin 50 μg/ml. Cells were grown to near confluency.
(§2) The screening was performed using a modification of the assay as described in Citron et al (1997) Nature Medicine 3: 67. Briefly, cells were plated in a 384-well plate at 10^4 cells/well in Ultraculture (Lonza, BE12-725F) supplemented with 1% glutamine (Invitrogen, 25030-024), 1% non-essential amino acid (NEAA), penicillin 50 U/ml en streptomycin 50 μg/ml in the presence of test compound at different test concentrations. The cell/compound mixture was incubated overnight at 37° C., 5% CO2. The next day the media were assayed by two sandwich immuno-assays, for Aβ42 and Aβ total.
(§3) Aβtotal and Aβ42 concentrations were quantified in the cell supernatant using the Aphalisa technology (Perkin Elmer). Alphalisa is a sandwich assay using biotinylated antibody attached to streptavidin coated donorbeads and antibody conjugated to acceptor beads. In the presence of antigen, the beads come into close proximity. The excitation of the donor beads provokes the release of singlet oxygen molecules that trigger a cascade of energy transfer in the acceptor beads, resulting in light emission. To quantify the amount of Aβ42 in the cell supernatant, monoclonal antibody specific to the C-terminus of Aβ42 (JRF/cAβ42/26) was coupled to the receptor beads and biotinylated antibody specific to the N-terminus of Aβ (JRF/AβN/25) was used to react with the donor beads. To quantify the amount of Aβtotal in the cell supernatant, monoclonal antibody specific to the N-terminus of Aβ (JRF/AβN/25) was coupled to the receptor beads and biotinylated antibody specific to the mid region of Aβ (biotinylated 4G8) was used to react with the donor beads.
(§4) To obtain the values reported in Table 3, the data are calculated as percentage of the maximum amount of amyloid Beta 42 measured in the absence of the test compound. The sigmoidal dose response curves were analyzed using non-linear regression analysis with percentage of the control plotted against the log concentration of the compound. A 4-parameter equation was used to determine the IC50.

[2] = biological target: T1, γ-secretase; test: Screening for γ-secretase-modulating activity: Aβ42 in supernatant of SKNBE2 cells carrying hAPP 695 wild type (Alphalisa); type: cell-based; conditions: SKNBE2 human neuroblastoma cells carrying hAPP 695 wild type, overnight incubation, Aβ42 in cell supernatant
Protocol: as §1, §2, §3, §4

IC50 [1] [nM]	IC50 [2] [nM]	SMILES
> 10000	50	Cc1cn(-c2ccc3n(c2=O)C[C@@H](C)N(C(C)c2cc(C(F)(F)F)cc(C(F)(F)F)c2)C3=O)cn1 (mixture of isomers) [compound 154]
> 10000	220	Cc1cn(-c2ccc3n(c2=O)CCN(C(C)c2cccc(Cl)c2Cl)C3=O)cn1 (racemic) [compound 10]
> 10000	980	Cc1cn(-c2ccc3n(c2=O)CCN(C(c2ccccc2)c2cc(C(F)(F)F)cc(C(F)(F)F)c2)C3=O)cn1 (racemic) [compound 52]
> 10000	1780	Cc1cn(-c2ccc3n(c2=O)C(C)C(C)N(Cc2cc(C(F)(F)F)cc(C(F)(F)F)c2)C3=O)cn1 (single isomer, unassigned) [14a]
> 10000	650	Cc1cn(-c2ccc3n(c2=O)C(C)C(C)N(Cc2cc(C(F)(F)F)cc(C(F)(F)F)c2)C3=O)cn1 (single isomer, unassigned) [14b]
> 10000	20	Cc1cn(-c2ccc3n(c2=O)C[C@@H](C)N(C(C)c2cc(CC4CC4)cc(C(F)(F)F)c2)C3=O)cn1 (single isomer, unassigned) [compound 135]
> 10000	40	Cc1cn(-c2ccc3n(c2=O)C[C@@H](C)N(C(C)c2cc(CC4CC4)cc(C(F)(F)F)c2)C3=O)cn1 (single isomer, unassigned) [compound 136]
> 10000	210	CCC(c1cc(OC)cc(C(F)(F)F)c1)N1C(=O)c2ccc(-n3cnc(C)c3)c(=O)n2C[C@H]1C (single isomer, unassigned) [compound 142]
> 10000	130	CCOc1cc(C(C)N2C(=O)c3ccc(-n4cnc(C)c4)c(=O)n3C[C@H]2C)cc(C(F)(F)F)c1 (single isomer, unassigned) [compound 144]
> 10000	150	Cc1cn(-c2ccc3n(c2=O)C[C@@H](C)N(C(C)c2cccc(OC(F)(F)F)c2)C3=O)cn1 (single isomer, unassigned) [compound 146]
> 10000	330	Cc1cn(-c2ccc3n(c2=O)C[C@@H](C)N(C(C)c2cccc(OC(F)(F)F)c2)C3=O)cn1 (single isomer, unassigned) [compound 147]
> 10000	140	COc1cc(C(C)N2C(=O)c3ccc(-n4cnc(C)c4)c(=O)n3C[C@H]2C)cc(C(F)(F)F)c1 (single isomer, unassigned) [compound 148]
> 10000	300	COc1cc(C(C)N2C(=O)c3ccc(-n4cnc(C)c4)c(=O)n3C[C@H]2C)cc(C(F)(F)F)c1 (single isomer, unassigned) [compound 149]
9120	650	Cc1cn(-c2ccc3n(c2=O)CCN(C(C)c2c[nH]c4cc(F)c(Cl)cc24)C3=O)cn1 (single isomer, unassigned) [compound 184]
6920	190	Cc1cn(-c2ccc3n(c2=O)CC(C)N(C(C)c2c[nH]c4cc(F)c(Cl)cc24)C3=O)cn1 (single isomer, unassigned) [compound 187]
4570	10	Cc1cn(-c2ccc3n(c2=O)CC(C)N(C(C)c2c[nH]c4cc(F)c(Cl)cc24)C3=O)cn1 (single isomer, unassigned) [compound 188]
> 10000	200	CCn1cc(C(C)N2C(=O)c3ccc(-n4cnc(C)c4)c(=O)n3CC2C)c2cc(Cl)c(F)cc21 (single isomer, unassigned) [compound 191]
> 10000	200	Cc1cn(-c2ccc3n(c2=O)CC(C)N(C(C)c2cn(C(C)C)c4cc(F)c(Cl)cc24)C3=O)cn1 (single isomer, unassigned) [compound 193]

IC50 [1] [nM]	IC50 [2] [nM]	SMILES
> 10000	> 10000	Cc1cn(-c2ccc3n(c2=O)CC(C)N(C2Cc4ccccc4C2)C3=O)cn1 (single isomer, unassigned) [compound 206]
> 10000	380	Cc1cn(-c2ccc3n(c2=O)CCN(C(C)c2cc(Cl)cc(Cl)c2)C3=O)cn1 (single isomer, unassigned) [compound 209]
> 10000	260	Cc1cn(-c2ccc3n(c2=O)C[C@@H](C)N(C(C)c2cc(Cl)cc(Cl)c2)C3=O)cn1 (single isomer, unassigned) [compound 210]
6460	240	Cc1cn(-c2ccc3n(c2=O)CC(C)N(C(C)c2cn(C)c4ccc(C(F)(F)F)cc24)C3=O)cn1 (single isomer, unassigned) [compound 214]
1440	10	Cc1cn(-c2ccc3n(c2=O)CC(C)N(C(C)c2cn(C)c4ccc(C(F)(F)F)cc24)C3=O)cn1 (single isomer, unassigned) [compound 215]
6460	120	CCn1cc(C(C)N2C(=O)c3ccc(-n4cnc(C)c4)c(=O)n3CC2C)c2cc(C(F)(F)F)ccc21 (single isomer, unassigned) [compound 216]
480	3	CCn1cc(C(C)N2C(=O)c3ccc(-n4cnc(C)c4)c(=O)n3CC2C)c2cc(C(F)(F)F)ccc21 (single isomer, unassigned) [compound 217]
3800	140	Cc1cn(-c2ccc3n(c2=O)CC(C)N(C(C)c2c[nH]c4c(F)cc(Cl)cc24)C3=O)cn1 (single isomer, unassigned) [compound 218]
6030	170	CCn1cc(C(C)N2C(=O)c3ccc(-n4cnc(C)c4)c(=O)n3CC2C)c2cc(Cl)cc(F)c21 (single isomer, unassigned) [compound 220]
1860	10	Cc1cn(-c2ccc3n(c2=O)CC(C)N(C(C)c2cn(C)c4c(F)cc(Cl)cc24)C3=O)cn1 (single isomer, unassigned) [compound 224]
6000	10	CCn1cc(C(C)N2C(=O)c3ccc(-n4cnc(C)c4)c(=O)n3C[C@H]2C)c2ccc(C(F)(F)F)cc21 (single isomer, unassigned) [compound 235]
2000	10	CCn1cc(C(C)N2C(=O)c3ccc(-n4cnc(C)c4)c(=O)n3CC2C)c2cc(Cl)ccc21 (single isomer, unassigned) [compound 243]
> 10000	370	CCn1cc(C(C)N2C(=O)c3ccc(-n4cnc(C)c4)c(=O)n3C[C@H]2C)c2ccc(C(F)(F)F)cc21 (single isomer, unassigned) [compound 244]
1000	8	Cc1cn(-c2ccc3n(c2=O)C[C@@H](C)N(C(C)c2cn(C4CC4)c4cc(F)c(Cl)cc24)C3=O)cn1 (single isomer, unassigned) [compound 248]
8000	490	CCn1cc(C(C)N2C(=O)c3ccc(-n4cnc(C)c4)c(=O)n3CC2C)c2cc(Cl)ccc21 (single isomer, unassigned) [compound 249]
4000	40	COc1cc2c(cc1Cl)c(C(C)N1C(=O)c3ccc(-n4cnc(C)c4)c(=O)n3C[C@H]1C)cn2C (single isomer, unassigned) [compound 256]
> 10000	80	Cc1cn(-c2ccc3n(c2=O)CC(C)N(Cc2ccc(C)c(N4CCCCC4)c2)C3=O)cn1 (stereo not drawn) [compound 4]
> 10000	930	CCc1cn(-c2ccc3n(c2=O)CC(CN(C)C)N(Cc2cc(C(F)(F)F)cc(C(F)(F)F)c2)C3=O)cn1 (stereo not drawn) [compound 8]
